Molecular target: T1, human Lf (lactoferrin) (Homo sapiens, UniProt P02788)
T1 construct: gene LTF; full-length, label-free
Assay: label-free microscale thermophoresis (intrinsic fluorescence, […] nm)
Type: binding
Settings: 0.1 M Tris pH 7.4; Lf 120 nM; CP20 7 nM to 250 μM; 10 min equilibration; iron saturation of Lf not stated

T1 sequence (P02788 20-710): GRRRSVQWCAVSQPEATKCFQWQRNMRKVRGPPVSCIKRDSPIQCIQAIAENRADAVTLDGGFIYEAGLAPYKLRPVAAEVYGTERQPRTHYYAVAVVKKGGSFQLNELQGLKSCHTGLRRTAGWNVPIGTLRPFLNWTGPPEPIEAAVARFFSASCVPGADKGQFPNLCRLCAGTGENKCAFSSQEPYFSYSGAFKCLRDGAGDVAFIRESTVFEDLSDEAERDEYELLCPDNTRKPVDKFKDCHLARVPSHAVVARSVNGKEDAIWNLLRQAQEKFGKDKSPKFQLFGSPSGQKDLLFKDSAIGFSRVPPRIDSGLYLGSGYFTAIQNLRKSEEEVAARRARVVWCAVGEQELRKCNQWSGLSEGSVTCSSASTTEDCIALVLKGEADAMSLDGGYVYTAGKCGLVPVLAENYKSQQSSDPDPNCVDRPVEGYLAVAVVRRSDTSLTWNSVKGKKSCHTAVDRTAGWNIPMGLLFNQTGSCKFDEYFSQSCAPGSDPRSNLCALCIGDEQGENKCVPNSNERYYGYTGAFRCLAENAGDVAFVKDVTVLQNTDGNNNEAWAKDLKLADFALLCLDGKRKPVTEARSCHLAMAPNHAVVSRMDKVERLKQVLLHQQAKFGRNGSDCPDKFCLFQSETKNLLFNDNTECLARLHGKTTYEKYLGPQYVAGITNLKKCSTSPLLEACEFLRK

Kd: 8.9 × 10^−6 ± 1.6 Molar
SMILES: Cc1c(O)c(=O)ccn1C [deferiprone, 1,2-dimethyl-3-hydroxypyrid-4-one]
